Data: patent publication US10399939B2, “Tetrahydronaphthalene estrogen receptor modulators and uses thereof” (Genentech, Inc., priority 2015, dated 2019)

Target: ER-alpha (WT) (Homo sapiens (Human), UniProt P03372)
Assay: Breast Cancer Cell ERa High Content Fluorescence Imaging Degradation Assay (ER-alpha MCF7 HCS)
Type: cell-based
Conditions: for EC50 / ER-alpha (WT) MCF7 HCS (S inf) / ER-alpha (WT) MCF7 HCS (EC50): MCF7 breast cancer cells; for EC50 / ER-alpha (WT) MCF7 HCS (EC50): 4 hours incubation, inflexion point of curve; for ER-alpha (WT) MCF7 HCS (S inf): plateau of the maximal effect (ERa degradation), DMSO and 5 nM Fulvestrant define 0% and 100% changes in ESR1
Description: Example 901: Breast Cancer Cell ERa High Content Fluorescence Imaging Degradation Assay
MCF7 breast cancer cells were seeded on day 1 at a density of 10,000 cells per well in 384 well poly-lysine coated tissue culture plate (Greiner # T-3101-4), in 50 µL/well RPMI (phenol red free), 10% FBS (Charcoal stripped), containing L-glutamine. […] Compounds and controls were dispensed using a Labcyte Echo acoustic dispenser to dispense compounds with a pre-defined serial dilution (1.8×, 10 point, in duplicate) and appropriate backfill and control compounds (final total volume transferred was 417.5 nL and compound dispense volume ranges from 2.5 nL to 417.5 nL; 0.84% DMSO (v/v) final), ultimately producing a concentration range from 0.05 nM to 835 nM. Cell plates were incubated at 37° C., for 4 hours. Fixation and permeabilization were carried out using a Biotek EL406 plate washer and dispenser as follows. Cells were fixed by addition of 15 μL of 16% paraformaldehyde (Electron Microscopy Sciences #15710-S) directly to the 50 μL cell culture medium in each well using the peristaltic pump 5 μL cassette on a Biotek EL406 (final concentration of formaldehyde was 3.7% w/v). Samples were incubated 30 minutes. Well contents was aspirated and 50 μL/well of Phosphate Buffered Saline (PBS) containing 0.5% w/v bovine serum albumen, 0.5% v/v Triton X-100 (Antibody Dilution Buffer) was added to each well. Samples were incubated for 30 minutes. Well contents were aspirated and washed 3 times with 100 μL/well of PBS. Immunofluorescence staining of estrogen receptor alpha (ESR1) was carried out using a Biotek EL406 plate washer and dispenser as follows. The well supernatant was aspirated from the wells and 25 μL/well of anti-ESR1 mAb (F10) (Santa Cruz sc-8002) diluted 1:1000 in Antibody Dilution Buffer was dispensed. Samples were incubated for 2 hours at room temperature. Samples were washed 4 times with 100 μL/well of PBS. 25 μL (microliters)/well of secondary antibody solution (Alexafluor® 488 conjugate anti-mouse IgG (LifeTechnologies #A21202) diluted 1:1000 and Hoechst 33342 1 μg/ml diluted in Antibody Dilution Buffer) were dispensed into each well. Samples were incubated for 2 hours at room temperature. Samples were washed 3 times with 100 μL/well of PBS using a Biotek EL406. Quantitative fluorescence imaging of ESR1 was carried out using a Cellomics Arrayscan V® (Thermo). Fluorescence images of the samples (Channel 1: XF53 Hoechst (DNA stain); Channel 2: XF53 FITC (ESR1 stain)) were acquired using a Cellomics VTI Arrayscan using the Bioapplication “Compartmental Analysis” using the auto-exposure (based on DMSO control wells) setting “peak target percentile” set to 25% target saturation for both channels. Channel 1 (DNA stain) was used to define the nuclear region (Circ). Measurements of “Mean_CircAvgIntCh2”, which is the Alexafluor 488 fluorescence intensity (ESR1) within the nuclear region, was measured on a per cell basis and averaged over all the measured cells. Data analysis was carried out using Genedata Screener Software, with DMSO and 5 nM Fulvestrant treated samples being used to define the 0% and 100% changes in ESR1. The “Robust Fit” method was used to define the inflexion point of curve (EC50) and the plateau of the maximal effect (Sinf).

ER-alpha (WT), sequence (P03372 whole entry): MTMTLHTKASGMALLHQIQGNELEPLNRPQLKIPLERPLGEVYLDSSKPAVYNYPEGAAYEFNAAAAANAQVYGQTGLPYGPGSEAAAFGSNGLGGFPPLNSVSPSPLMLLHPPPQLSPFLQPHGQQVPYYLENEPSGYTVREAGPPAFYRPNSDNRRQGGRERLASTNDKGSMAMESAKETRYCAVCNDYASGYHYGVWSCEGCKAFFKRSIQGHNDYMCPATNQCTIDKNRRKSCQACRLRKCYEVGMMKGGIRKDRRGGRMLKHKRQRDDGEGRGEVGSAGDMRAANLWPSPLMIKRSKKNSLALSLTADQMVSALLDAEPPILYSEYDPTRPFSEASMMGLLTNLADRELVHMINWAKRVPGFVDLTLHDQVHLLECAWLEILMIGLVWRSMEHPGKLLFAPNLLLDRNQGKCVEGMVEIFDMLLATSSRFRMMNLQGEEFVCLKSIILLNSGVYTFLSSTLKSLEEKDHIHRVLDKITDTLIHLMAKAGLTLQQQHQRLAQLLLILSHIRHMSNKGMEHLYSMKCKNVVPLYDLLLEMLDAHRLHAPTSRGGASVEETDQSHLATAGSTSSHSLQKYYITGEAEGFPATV

Structure (SMILES)	EC50 [nM]	ER-alpha (WT) MCF7 HCS (S inf) [%]	degradation activities measured as ER-alpha MCF7 HCS Sinf (%) values (in words) (MCF7 cells)	ER-alpha (WT) MCF7 HCS (EC50) [µmol]
CN1CC(CCOc2ccc([C@H]3c4ccc(O)cc4CC[C@H]3c3ccccc3)cc2)C1 (stereo in doubt) [B, (5S,6R)-5-(4-(2-(1-methylazetidin-3-yl)ethoxy)phenyl)-6-phenyl-5,6,7,8-tetrahydronaphthalen-2-ol, reference compound]	0.026	−43.35	low	–
C[C@@H](COc1ccc([C@@H]2c3ccc(O)cc3CC[C@@H]2c2ccccc2)cc1)N1CC[C@@H](CF)C1 [Compound 123, (5R,6S)-5-(4-((S)-2-((R)-3-(fluoromethyl)pyrrolidin-1-yl)propoxy)phenyl)-6-phenyl-5,6,7,8-tetrahydronaphthalen-2-ol]	16.9	−30	–	–
Oc1ccc2c(c1)CCC1(CCCC1)[C@@H]2c1ccc(OCCN2CC(CF)C2)cc1 [Compound 122, (R)-1′-(4-(2-(3-(fluoromethyl)azetidin-1-yl)ethoxy)phenyl)-3′,4′-dihydro-1′H-spiro[cyclopentane-1,2′-naphthalen]-6′-ol]	0.451	−99.2	–	–
Oc1ccc2c(c1)CC[C@@H](C1CCC(F)(F)CC1)[C@H]2c1ccc(OCCN2CC(CF)C2)cc1 [Compound 108, (5S,6S)-6-(4,4-difluorocyclohexyl)-5-(4-(2-(3-(fluoromethyl)azetidin-1-yl)ethoxy)phenyl)-5,6,7,8-tetrahydronaphthalen-2-ol]	14.6	−97	–	–
Oc1ccc2c(c1)CC[C@@H](C1CCOCC1)[C@H]2c1ccc(OCCN2CC(CF)C2)cc1 [Compound 109, (5S,6S)-5-(4-(2-(3-(fluoromethyl)azetidin-1-yl)ethoxy)phenyl)-6-(tetrahydro-2H-pyran-4-yl)-5,6,7,8-tetrahydronaphthalen-2-ol]	0.164	−95.2	–	–
C[C@@H](COc1ccc([C@H]2c3ccc(O)cc3CC[C@H]2c2ccccc2)cc1)N1CC[C@@H](CF)C1 [Compound 124, (5S,6R)-5-(4-((S)-2-((R)-3-(fluoromethyl)pyrrolidin-1-yl)propoxy)phenyl)-6-phenyl-5,6,7,8-tetrahydronaphthalen-2-ol]	0.0371	−93.4	–	–
Oc1ccc2c(c1)CC[C@H](c1ccccc1)[C@@H]2c1ccc(OCCN2CC(CCl)C2)cc1 [Compound 112, (5R,6S)-5-(4-(2-(3-(chloromethyl)azetidin-1-yl)ethoxy)phenyl)-6-phenyl-5,6,7,8-tetrahydronaphthalen-2-ol]	50.9	−35	–	–
Oc1ccc2c(c1)CC[C@H](c1ccccc1)[C@@H]2c1ccc(OCCN2CCC(CF)C2)cc1 (stereo partly drawn) [Compound 111, (5R,6S)-5-(4-(2-(3-(fluoromethyl)pyrrolidin-1-yl)ethoxy)phenyl)-6-phenyl-5,6,7,8-tetrahydronaphthalen-2-ol]	47	−55	–	–
Oc1ccc2c(c1)CC[C@@H](c1ccccc1)[C@H]2c1ccc(OCCN2CC(CF)C2)cc1F [Compound 119, (5R,6R)-5-(2-fluoro-4-(2-(3-(fluoromethyl)azetidin-1-yl)ethoxy)phenyl)-6-phenyl-5,6,7,8-tetrahydronaphthalen-2-ol]	16.5	−85	–	–

Second part, the molecule after the results:

EC50 [nM]	ER-alpha (WT) MCF7 HCS (S inf) [%]	degradation activities measured as ER-alpha MCF7 HCS Sinf (%) values (in words) (MCF7 cells)	ER-alpha (WT) MCF7 HCS (EC50) [µmol]	Structure (SMILES)
0.0461	−96.5	–	–	Oc1ccc2c(c1)CC[C@H](c1ccccc1)[C@@H]2c1ccc(OCCN2CC(CF)C2)nc1 [Compound 127, (5S,6S)-5-(6-(2-(3-(fluoromethyl)azetidin-1-yl)ethoxy)pyridin-3-yl)-6-phenyl-5,6,7,8-tetrahydronaphthalen-2-ol]
0.107	−99.3	–	–	Oc1ccc2c(c1)CC[C@H](c1ccccc1)[C@@H]2c1ccc(OC2CN(CCCF)C2)cc1 [Compound 130, (5R,6S)-5-(4-((1-(3-fluoropropyl)azetidin-3-yl)oxy)phenyl)-6-phenyl-5,6,7,8-tetrahydronaphthalen-2-ol]
53	−30	–	–	N#Cc1ccc([C@H]2CCc3cc(O)ccc3[C@H]2c2ccc(OCCN3CC(CF)C3)cc2)cc1 [Compound 133, 4-((1R,2S)-1-(4-(2-(3-(fluoromethyl)azetidin-1-yl)ethoxy)phenyl)-6-hydroxy-1,2,3,4-tetrahydronaphthalen-2-yl)benzonitrile]
0.203	−89.89	–	–	Oc1ccc2c(c1)CC[C@@H](c1ccccc1)[C@H]2c1ccc(NCCN2CC(CF)C2)cc1 [Compound 138, (5S,6R)-5-(4-((2-(3-(fluoromethyl)azetidin-1-yl)ethyl)amino)phenyl)-6-phenyl-5,6,7,8-tetrahydronaphthalen-2-ol]
–	–	–	>0.10	Oc1ccc2c(c1)CC[C@@H](c1ccccc1)[C@H]2c1ccc(OC2CN(CCCF)C2)cc1 [Compound 129, (5S,6R)-5-(4-((1-(3-fluoropropyl)azetidin-3-yl)oxy)phenyl)-6-phenyl-5,6,7,8-tetrahydronaphthalen-2-ol]
–	–	–	>0.10	C[C@H](CN1CC[C@@H](CF)C1)Oc1ccc([C@@H]2c3ccc(O)cc3CC[C@@H]2c2ccccc2)cc1 [Compound 125, (5R,6S)-5-(4-(((R)-1-((R)-3-(fluoromethyl)pyrrolidin-1-yl)propan-2-yl)oxy)phenyl)-6-phenyl-5,6,7,8-tetrahydronaphthalen-2-ol]
186	−80	–	–	Oc1ccc2c(c1)CC[C@H](c1ccccc1)[C@@H]2c1ccc(NCCN2CC(CF)C2)cc1 [Compound 137, (5R,6S)-5-(4-((2-(3-(fluoromethyl)azetidin-1-yl)ethyl)amino)phenyl)-6-phenyl-5,6,7,8-tetrahydronaphthalen-2-ol]
0.0385	−99.2	–	–	N#Cc1ccc([C@@H]2CCc3cc(O)ccc3[C@@H]2c2ccc(OCCN3CC(CF)C3)cc2)cc1 [Compound 134, 4-((1S,2R)-1-(4-(2-(3-(fluoromethyl)azetidin-1-yl)ethoxy)phenyl)-6-hydroxy-1,2,3,4-tetrahydronaphthalen-2-yl)benzonitrile]
228	−50	–	–	Oc1ccc2c(c1)CC[C@H](c1ccccc1)[C@@H]2c1ccc(NCCN2CC[C@@H](CF)C2)cc1 [Compound 139, (5R,6S)-5-(4-((2-((R)-3-(fluoromethyl)pyrrolidin-1-yl)ethyl)amino)phenyl)-6-phenyl-5,6,7,8-tetrahydronaphthalen-2-ol]
29.8	−82	–	–	Oc1cccc2c1[C@@H](c1ccc(OCCN3CC(CF)C3)cc1)[C@@H](c1ccccc1)CC2 [Compound 135, (7S,8R)-8-(4-(2-(3-(fluoromethyl)azetidin-1-yl)ethoxy)phenyl)-7-phenyl-5,6,7,8-tetrahydronaphthalen-1-ol]
0.675	−97.1	–	–	C[C@H](CN1CC[C@@H](CF)C1)Oc1ccc([C@H]2c3ccc(O)cc3CC[C@H]2c2ccccc2)cc1 [Compound 126, (5S,6R)-5-(4-(((R)-1-((R)-3-(fluoromethyl)pyrrolidin-1-yl)propan-2-yl)oxy)phenyl)-6-phenyl-5,6,7,8-tetrahydronaphthalen-2-ol]
